# Assay results as given in paper PMC6696315, “Inhibiting Acetylcholinesterase to Activate Pleiotropic Prodrugs with Therapeutic Interest in Alzheimer’s Disease” (Molecules, 2019).
# Columns and labels:
# human 5-HT4R = molecular target: T1, human 5-HT4R (Homo sapiens, UniProt Q13639); test: 5-HT4R radioligand displacement assay ([3H]-GR113808); assay type: binding
# T1 construct: purchased Eurofins HTS110M
# Procedure: All the synthesized phenolic derivatives and their carbamates were evaluated as potential inhibitors of human AChE, using the Ellman assay, as well as potential ligands for human 5-HT4R using a radioligand displacement assay. […].
# For competition studies, 2.5 µg of proteins (5-HT4(b) membrane preparations, HTS110M, Eurofins. Eurofins’ 5-HT4(b) membrane preparations are crude membrane preparations made from their proprietary stable recombinant cell lines to ensure high-level of GPCR surface expression.) were incubated in duplicate at 25 °C for 60 min in the absence or the presence of 10^−6 or 10^−8M of each drug (9 was used as a reference standard) and 0.2 nM [^3H]-GR113808 (NET 1152, Perkin Elmer) in 25 mM Tris buffer (pH 7.4, 25 °C). At the end of the incubation, homogenates were filtered through Whatman GF/C filters (Alpha Biotech) pre-soaked with 0.5% polyethylenimine using a Brandel cell harvester. Filters were subsequently washed three times with 1 mL of ice-cold 25 mM Tris buffer (pH 7.4, 4 °C). Non-specific binding was evaluated in parallel in the presence of 30 µM serotonin. For some of these compounds, affinity constants were calculated from five-point inhibition curves using the GraphPad Prism 6 software and expressed as Ki ± SD.
# [1] = Parallel artificial membrane permeability assay (PAMPA-BBB)
# Procedure: The ability of carbamate 20 to cross the BBB was assessed using a parallel artificial membrane permeability assay experiment. […] The parallel artificial membrane permeability assay (PAMPA) blood–brain barrier (BBB) experiments were conducted using the Pampa Explorer Kit (Pion Inc., Billerica, MA, USA) according to the protocol provided by the manufacturer. […] The PAMPA sandwich was assembled and allowed to incubate at room temperature for 4 h without stirring. The sandwich was then separated, and the UV-visible spectra were measured for both the donor and receiver wells with the microplate reader (Tecan Infinit M200).
# mice [2] = test: Spontaneous locomotor activity (actimeter); assay type: in vivo, NMRI mice; details: IP 30 min before test, 1, 3 and 10 mg/kg
# Procedure: Locomotor activity. The locomotion of mice was measured using an actimeter (Imetronic®, Pessac, France) through infrared detection. Eight individual removable polycarbonate cages (21 cm length, 7 cm wide and 12 cm high), in which each mouse was placed, were used in the actimeter. Locomotor activity was measured by recording the number of interruptions of beams of the red light over a period of 30 min through a recording system attached to the actimeter. Compound 20 was tested at 1, 3 and 10 mg/kg. Chlorpromazine (3 mg/kg) were used as depressive reference.
# mice [3] = test: Spontaneous alternation (Y maze), MK801-induced deficit; assay type: in vivo, NMRI mice; details: 1 mg/kg IP 30 min before test, MK801 0.1 mg/kg SC
# Procedure: Animals. Adult male NMRI mice (3 months old, weighing 35–40 g) from Janvier labs (Le Genest-Saint-Isle, France) were used to perform experiments. Mice were housed by ten in standard polycarbonate cages in standard controlled conditions (22 ± 2 °C, 55 ± 10% humidity) with a reversed 12 h light/dark cycle (light on at 7 pm). Food and water were available ad libitum in the home cage. All experiments were conducted (between 9 am and 3 pm) during the active–dark phase of the cycle and were in agreement with the European Directives and French law on animal experimentation (personal authorization n° 14–17 for MB and 14–60 for TF).
# Spatial working memory. The antiamnesic activity of the tested compounds was evaluated by a reversal of deficit on spontaneous alternation behavior in the Y maze test. […] The Y maze made of grey plastic consisted of three equally-spaced arms (21-cm long, 7-cm wide with walls 15-cm high). The mouse was placed at the end of one of the arms and allowed to move freely through the maze during a 5 min session, while the sequence of arm entries was recorded by an observer. An arm entry was scored when all four feet crossed into the arm. An alternation was defined as entries into all three arms on a consecutive occasion.
# Pharmacological treatments.
# T1 sequence (Q13639 whole entry): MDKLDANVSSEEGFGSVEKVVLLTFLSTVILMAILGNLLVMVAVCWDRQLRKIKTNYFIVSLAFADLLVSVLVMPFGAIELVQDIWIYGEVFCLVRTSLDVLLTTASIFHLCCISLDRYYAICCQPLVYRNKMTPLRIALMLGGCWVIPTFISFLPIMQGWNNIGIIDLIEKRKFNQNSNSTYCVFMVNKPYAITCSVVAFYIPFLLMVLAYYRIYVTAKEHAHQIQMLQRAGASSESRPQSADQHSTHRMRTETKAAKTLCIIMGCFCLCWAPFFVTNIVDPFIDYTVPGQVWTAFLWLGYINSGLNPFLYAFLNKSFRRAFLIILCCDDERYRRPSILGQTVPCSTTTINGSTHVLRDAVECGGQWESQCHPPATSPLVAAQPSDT
compound,measurement,setting,value
"CCN(C)C(=O)Oc1cccc(CN2CCC(CCC(=O)c3cc(Cl)c(N)cc3OC)CC2)c1.O=C(O)/C=C/C(=O)O [Compound 20, [3-[[4-[3-(4-Amino-5-chloro-2-methoxyphenyl)-3-oxopropyl]-1-piperidyl]methyl]phenyl] N-ethyl-N-methyl-carbamate fumaric acid salt]",(h)5-HT4R % Inhibition at 10^−8 M,human 5-HT4R; 10^−8 M,16%
same,5-HT4R affinity,human 5-HT4R; result in words,devoid of any activity towards 5-HT4R
same,LogPe,"[1]; PAMPA effective permeability coefficient, pH 7.4, 4 h",−4.39
same,"Papp at 4 h, 100 μM","[1]; PAMPA, pH 7.4",40.7 ×10⁻⁶ cm/s
same,brain penetration (BBB crossing),[1]; classification from PAMPA,good brain penetration
same,spontaneous locomotor activity versus NaCl,mice [2],"none of the tested doses of compound 20 (1, 3 and 10 mg/kg) statically modified spontaneous locomotor activity"
same,percentage of spontaneous alternation,mice [3],significantly different from the value of the chance level
